The values that follow come from patent US20110034472A1, “Novel Compounds for Treatment of Cancer and Disorders Associated With Angiogenesis Function” (UNIVERSITY OF SOUTHERN CALIFORNIA, priority 2004, published 2011).

“Also recorded” adds a separate entry of the source.

The subject of one series is PC3 xenografts. Nature of the series: PC3 human prostate cancer xenograft in athymic nude mice. Type of series: in vivo. As to the method: FIG. 20. (A) is a schematic outline of tumor growth and dosing in PC3 mice xenografts. […] Athymic nude mice implanted with PC3 cells were treated with the indicated concentration of SC21 through daily i.p. administration for 5 d. Tumor growth was monitored for 5 wks. Values represent the tumor weight (mean±SD) for each group. (C) depicts dose-response to SC21 in the PC3 xenograft. Values represent the % T/C from each treatment group on the last day of measurement (after 5 wks); bars,±SD.
Fifty male athymic nude (nu/nu) mice (Charles River Laboratories, Wilmington, Mass.) were used for in vivo testing. The animals were fed ad libitum and kept in air conditioned rooms at 20±2° C. with a 12-hour light-dark period. Animal care and manipulation were in agreement with the University of Southern California Institutional Guidelines, which are in accordance with the Guidelines for the Care and Use of Laboratory Animals.
PC3 cells from in vitro cell culture were inoculated s.c. in both flanks of athymic nude mice (2×10^6 cells/flank) under aseptic conditions. Tumor growth was assessed by biweekly measurement of tumor diameters with a Vernier caliper (length×width). Tumor weight was calculated according to the formula: TW (mg)=tumor volume (mm^3)=d^2×D/2, where d and D are the shortest and longest diameters, respectively. Cells were allowed to grow to an average volume of 100 mm^3. Animals were then randomly assigned for control and treatment groups, to receive control vehicle or SC21 (0.3 and 3 mg/kg, dissolved in isotonic saline solution) via i.p. injections once a day for 5 days. Treatment of each animal was based on individual body weight. After 5 days of treatment, the tumor volumes in each group were measured […]. Treated animals were checked daily for treatment toxicity/mortality. The percentage of tumor growth inhibition was calculated as % T/C=100× (mean TW of treated group/mean TW of control group).
The in vivo efficacy of SC21 was evaluated in nude mice inoculated with human prostate PC3 cells. Animals were treated with daily i.p. injections of saline (controls) and SC21 at 0.3 or 3 mg/kg. After 5 days of dosing, the drug treatment was discontinued and the animals were monitored biweekly for 5 weeks.
On the technique in general: A xenograft is tissue or cells of one species grown in another, often human tumour cells in immunodeficient mice.

Another series concerns MDA-MB-435 cells. Nature of the series: Flow cytometric cell cycle analysis, SC144. Type of series: cell-based, human. The conditions noted are these: 24 h of treatment, SC144 3 uM. An excerpt: Similar effects were obtained on the asynchronous prostate cancer cell line DU145.
(In flow cytometry, cells or beads pass a laser one at a time.)

[1] abbreviates: 0.3 or 3 mg/kg daily i.p. for 5 days.

Turning to `O=C(NNC(=O)c1ccccc1O)C1=CC2C=CC=CC2C=C1O` (centres unmarked) [SC21], in the series with PC3 xenografts (0.3 mg/kg of SC21), the “average weight of mice” value stood at 32.1 ± 1.92 g. Moreover, the “average weight of mice” value with PC3 xenografts (3.0 mg/kg of SC21) worked out at 33.3 ± 1.89 g. Also, in the series on PC3 xenografts (setting [1]), the “tolerability, drug-related deaths, body weight” value is “well-tolerated and did not result in any drug-related deaths and changes in body weight”; the “tumor burden / tumor growth” value is “significantly reduced tumor burden; also recorded: Significant reduction in tumor growth”.

Take `O=C(NNc1nc2cc(F)ccc2n2cccc12)c1cnccn1` [SC144, Pyrazine-2-carboxylic acid N′-(7-fluoro-pyrrolo[1,2-a]quinoxalin-4-yl)-hydrazide]: in the series with MDA-MB-435 cells, the “cells retained in S-phase” value came out at 80%.
